Test results reported in patent publication US20240239811A1, “5-(5-(PIPERIDIN-4-YL)THIENO[3,2-C]PYRAZOL-2-YL]INDAZOLE DERIVATIVES AND RELATED COMPOUNDS AS MODULATORS FOR SPLICING NUCLEIC ACIDS AND FOR THE T” (REMIX THERAPEUTICS INC., priority 2020, published 2024).
Counter-ions that a name gives are not always drawn.

Tests used:
Assay type in all cases: cell-based
SMN2 CJ mRNA = assay: Gene panel canonical junction qPCR assay, SMN2; conditions: Table 6, decrease in CJ mRNA, read-out: SMN2 IC50 (decrease in CJ mRNA levels)
Procedure: (§1) Compounds described herein were used to modulate RNA transcript abundance in cells. The expression of a target mRNA was measured by detecting the formation of an exon-exon junction in the canonical transcript (CJ). A compound mediated exon-inclusion event was detected by observing an increase in formation of a new junction with an alternative exon (AJ). Real-time qPCR assays were used to detect these splicing switches and interrogate the potency of various compounds towards different target genes. A high-throughput real time quantitative PCR (RT-qPCR) assay was developed to measure these two isoforms of the mRNA (CJ and AJ) for an exemplary gene, HTT, together with a control housekeeping gene, GAPDH or GUSB or PPIA, used for normalization. Briefly, the A673 or K562 cell line was treated with various compounds described herein (e.g., compounds of Formula (I)). After treatment, the levels of the HTT mRNA targets were determined from each sample of cell lysate by cDNA synthesis followed by qPCR.
(§2) The A673 cell line was cultured in DMEM with 10% FBS. Cells were diluted with full growth media and plated in a 96-well plate (15,000 cells in 100ul media per well). The plate was incubated at 37° C. with 5% CO2 for 24 hours to allow cells to adhere. An 11-point 3-fold serial dilution of the compounds was made in DMSO then diluted in media in an intermediate plate. Compounds were transferred from the intermediate plate to the cell plate with the top dose at a final concentration of 10 uM in the well. Final DMSO concentration was kept at or below 0.25%. The cell plate was returned to the incubator at 37° C. with 5% CO2 for an additional 24 hours.
(§3) The K562 cell line was cultured in IMDM with 10% FBS. For K562, cells were diluted with full growth media and plated in either a 96-well plate (50,000 cells in 50 uL media per well) or a 384-well plate (8,000-40,000 cells in 45 uL media per well). An 11-point 3-fold serial dilution of the compounds were made in DMSO then diluted in media in an intermediate plate. Compound was transferred from the intermediate plate to the cell plate with the top dose at a final concentration of 10 uM in the well. Final DMSO concentration was kept at or below 0.25%. Final volume was 100 uL for 96-well plate and 50 uL for 384-well plate. The cell plate was then placed in an incubator at 37° C. with 5% CO2 for 24 hours.
(§4) The data analysis was performed by first determining the ΔCt vs the housekeeper gene. This ΔCt was then normalized against the DMSO control (ΔΔCt) and converted to RQ (relative quantification) using the 2^(−ΔΔCt) equation. The RQ were then converted to a percentage response by arbitrarily setting an assay window of 3.5 ΔCt for HTT-CJ and an assay window of 9 ΔCt for HTT-AJ. […] The percentage response was then fitted to the 4 parametric logistic equation to evaluate the concentration dependence of compound treatment. The increase in AJ mRNA is reported as AC50 (compound concentration having 50% response in AJ increase) while the decrease in CJ mRNA levels is reported as IC50 (compound concentration having 50% response in CJ decrease).
(§5) Additional studies were carried out for a larger panel of genes using the protocol provided above. The junction between flanking upstream and downstream exons was used to design canonical junction qPCR assays. At least one of the forward primer, reverse primer or the CY5-labeled 5′ nuclease probe (with 3′ quencher such as ZEN/Iowa Black FQ) was designed to overlap with the exon junction to capture the CJ mRNA transcript. BLAST was used to confirm the specificity of the probeset and parameters such as melting temperature, GC content, amplicon size, and primer dimer formation are considered during their design. Data for the decrease in CJ mRNA levels for three exemplary genes (HTT, SMN2, and Target C) analyzed in this panel are reported as IC50 (compound concentration having […] in CJ decrease).

HTT CJ mRNA = assay: Gene panel canonical junction qPCR assay, HTT; conditions: Table 6, decrease in CJ mRNA, read-out: HTT IC50 (decrease in CJ mRNA levels)
Procedure: as §1, §2, §3, §4, §5

Target C CJ mRNA = assay: Gene panel canonical junction qPCR assay, Target C; conditions: Table 6, decrease in CJ mRNA, read-out: Target C IC50 (decrease in CJ mRNA levels)
Procedure: as §1, §2, §3, §4, §5

HTT mRNA = assay: Splicing assay (RT-qPCR) monitoring HTT splice variants, canonical (CJ) and alternative (AJ) junction; conditions: 50% response, A673 or K562 cell line, 24 hours; for IC50: decrease in CJ mRNA; for AC50: increase in AJ mRNA
Procedure: as §1
• Cells-to-CT 1-step kit: ThermoFisher A25602, Cells-to-CT lysis reagent: ThermoFisher 4391851C, TaqMan™ Fast Virus 1-Step Master Mix: ThermoFisher 4444436 • GAPDH: VIC-PL, ThermoFisher 4326317E (Assay: Hs99999905_ml)—used for K562/suspension cell lines • GUSB: VIC-PL, ThermoFisher 4326320E (Assay: Hs99999908_ml)—used for K562/suspension cell lines • PPIA: VIC-PL, ThermoFisher 4326316E (Assay: Hs99999904_ml)—used for A673/adherent cell lines
as §2, §3
The cells were then gently washed with 50 uL-100 uL cold PBS before proceeding to addition of lysis buffer. 30 uL-50 uL of room temperature lysis buffer with DNAse I (and optionally RNAsin) was added to each well. Cells were shaken/mixed thoroughly at room temperature for 5-10 minutes for lysis to take place and then 3 uL-5 uL of room temperature stop solution was added and wells were shaken/mixed again. After 2-5 minutes, the cell lysate plate was transferred to ice for RT-qPCR reaction setup. The lysates could also be frozen at −80° C. for later use.
In some cases, a direct lysis buffer was used. An appropriate volume of 3X lysis buffer (10 mM Tris, 150 mM NaCl, 1.5%-2.5% Igepal and 0.1-1 U/uL RNAsin, pH 7.4) was directly added to either K562 or A673 cells in media and mixed by pipetting 3 times. The plates were then incubated at room temperature with shaking/rocking for 20-50 minutes to allow for lysis to take place. After this time, the cell lysate plate was transferred to ice to set up for the RT-qPCR reactions. The lysates could also be frozen at −80° C. for later use. […]

IC50 (SMN2 CJ mRNA) | IC50 (HTT CJ mRNA) | IC50 (Target C CJ mRNA) | IC50 (HTT mRNA) | SMILES | AC50 (HTT mRNA)
100 to 1000 nM | 1000 to 10000 nM | 1000 to 10000 nM | 1000 to 10000 nM | CC1CN(c2cc3sc(-c4cc(F)c5nn(C)cc5c4)nc3s2)CCN1C (stereo not shown) [Compound 128, 5-[5-(3,4-dimethylpiperazin-1-yl)thieno[2,3-d][1,3]thiazol-2-yl]-7-fluoro-2-methylindazole] | 1000 to 10000 nM
< 100 nM | < 100 nM | < 100 nM | < 100 nM | Cc1cn2cc(-c3nc4sc(C5CCNCC5)cc4s3)cc(F)c2n1 [Compound 130, 4-(2-[8-fluoro-2-methylimidazo[1,2-a]pyridin-6-yl]thieno[2,3-d][1,3]thiazol-5-yl)piperidine hydrochloride] | < 100 nM
1000 to 10000 nM | 1000 to 10000 nM | 1000 to 10000 nM | 1000 to 10000 nM | Cn1cc2c(F)cc(-c3nc4sc(C5CCNCC5)cc4s3)cc2n1 [Compound 131, 4-fluoro-2-methyl-6-[5-(piperidin-4-yl)thieno[2,3-d][1,3]thiazol-2-yl]indazole] | 1000 to 10000 nM
< 100 nM | < 100 nM | 100 to 1000 nM | < 100 nM | Cc1nc2c(F)cc(-c3nc4sc(C5CCNCC5)cc4s3)cc2o1 [Compound 132, 4-fluoro-2-methyl-6-[5-(piperidin-4-yl)thieno[2,3-d][1,3]thiazol-2-yl]-1,3-benzoxazole] | < 100 nM
100 to 1000 nM | 100 to 1000 nM | 100 to 1000 nM | 100 to 1000 nM | Cc1cn2nc(-c3nc4sc(C5CCNCC5)cc4s3)cc2c(C)n1 [Compound 133, 4-(2-[4,6-dimethylpyrazolo[1,5-a]pyrazin-2-yl]thieno[2,3-d][1,3]thiazol-5-yl)piperidine] | 100 to 1000 nM
< 100 nM | 100 to 1000 nM | 100 to 1000 nM | 100 to 1000 nM | Cn1cc2cc(-c3nc4sc(N5CCNCC5)cc4s3)cc(F)c2n1 [Compound 134, 7-fluoro-2-methyl-5-[5-(piperazin-1-yl)thieno[2,3-d][1,3]thiazol-2-yl]indazole] | < 100 nM
< 100 nM | 100 to 1000 nM | 100 to 1000 nM | 100 to 1000 nM | CC1CN(c2cc3sc(-c4cc(F)c5nn(C)cc5c4)nc3s2)CCN1 (stereo not shown) [Compound 135, 7-fluoro-2-methyl-5-[5-(3-methylpiperazin-1-yl)thieno[2,3-d][1,3]thiazol-2-yl]indazole] | 100 to 1000 nM
100 to 1000 nM | > 10000 nM | > 10000 nM | > 10000 nM | Cn1cc2cc(-c3nc4sc(N5CCNC6(CC6)C5)cc4s3)cc(F)c2n1 [Compound 136, 5-(5-[4,7-diazaspiro[2.5]octan-7-yl]thieno[2,3-d][1,3]thiazol-2-yl)-7-fluoro-2-methylindazole] | > 10000 nM
< 100 nM | 100 to 1000 nM | 100 to 1000 nM | 100 to 1000 nM | CCNC1CCN(c2cc3sc(-c4cc(F)c5nn(C)cc5c4)nc3s2)CC1 [Compound 137, N-ethyl-1-[2-(7-fluoro-2-methylindazol-5-yl)thieno[2,3-d][1,3]thiazol-5-yl]piperidin-4-amine] | 100 to 1000 nM
< 100 nM | < 100 nM | < 100 nM | < 100 nM | Cc1cn2cc(-c3nc4sc(C5CCNCC5)cc4s3)cc(Cl)c2n1 [Compound 139] | < 100 nM
< 100 nM | < 100 nM | 100 to 1000 nM | < 100 nM | Cc1cn2cc(-c3nc4sc(C5CCNCC5)cc4s3)cc(C)c2n1 [Compound 140, 4-(2-[2,8-dimethylimidazo[1,2-a]pyridin-6-yl]thieno[2,3-d][1,3]thiazol-5-yl)piperidine hydrochloride] | < 100 nM
< 100 nM | 100 to 1000 nM | 1000 to 10000 nM | 100 to 1000 nM | CN1CCN(c2cc3sc(-c4cc(F)c5nn(C)cc5c4)nc3s2)CC1 [Compound 141, 7-fluoro-2-methyl-5-[5-(4-methylpiperazin-1-yl)thieno[2,3-d][1,3]thiazol-2-yl]indazole] | 100 to 1000 nM
< 100 nM | 100 to 1000 nM | 1000 to 10000 nM | 100 to 1000 nM | Cn1cc2cc(-c3nc4sc(N5CCNC(C)(C)C5)cc4s3)cc(F)c2n1 [Compound 142, 5-[5-(3,3-dimethylpiperazin-1-yl)thieno[2,3-d][1,3]thiazol-2-yl]-7-fluoro-2-methylindazole] | 100 to 1000 nM
100 to 1000 nM | 1000 to 10000 nM | 1000 to 10000 nM | 1000 to 10000 nM | Cn1cc2cc(-c3nc4sc(N5CCC(NC(C)(C)C)C5)cc4s3)cc(F)c2n1 (stereo not shown) [Compound 143, N-tert-butyl-1-[2-(7-fluoro-2-methylindazol-5-yl)thieno[2,3-d][1,3]thiazol-5-yl]pyrrolidin-3-amine] | 1000 to 10000 nM
< 100 nM | 1000 to 10000 nM | > 10000 nM | 1000 to 10000 nM | Cn1cc2cc(-c3nc4sc(N5CCN6CCCC6C5)cc4s3)cc(F)c2n1 (stereo not shown) [Compound 144, 7-fluoro-5-(5-[hexahydro-1H-pyrrolo[1,2-a]pyrazin-2-yl]thieno[2,3-d][1,3]thiazol-2-yl)-2-methylindazole] | 100 to 1000 nM
< 100 nM | 100 to 1000 nM | 100 to 1000 nM | 100 to 1000 nM | CN1CC2(C1)CN(c1cc3sc(-c4cc(F)c5nn(C)cc5c4)nc3s1)C2 [Compound 146, 7-fluoro-2-methyl-5-(5-[6-methyl-2,6-diazaspiro[3.3]heptan-2-yl]thieno[2,3-d][1,3]thiazol-2-yl)indazole] | 100 to 1000 nM

SMILES | IC50 (SMN2 CJ mRNA) | IC50 (HTT CJ mRNA) | IC50 (Target C CJ mRNA) | IC50 (HTT mRNA) | AC50 (HTT mRNA)
CN1CCC(N(C)c2cc3sc(-c4cc(F)c5nn(C)cc5c4)nc3s2)CC1 [Compound 145, N-[2-(7-fluoro-2-methylindazol-5-yl)thieno[2,3-d][1,3]thiazol-5-yl]-N,1-dimethylpiperidin-4-amine] | 100 to 1000 nM | > 10000 nM | > 10000 nM | > 10000 nM | > 10000 nM
